These results are taken from publication PMC4426345 (ACS Infectious Diseases, 2014).

In one assay the test system is replicating Mtb H37Rv. In kind it is cell-based. As to conditions: Mycobacterium tuberculosis, read-out: MIC in MABA.
Assay [1] deals with M. tuberculosis H37Rv::pCHERRY3. It counts as cell-based, Mycobacterium tuberculosis. As to conditions: OD and fluorescence readouts, 5 d, listed as Ambien, 1.

Values after ≈ are worked out from the molar mass of the structure shown.

Take `Cc1ccc(-c2nc3ccc(C)cn3c2CC(=O)N(C)C)cc1` [Compound 1, N,N-dimethyl-2-(6-methyl-2-p-tolyl-imidazo[1,2-a]pyridin-3-yl)acetamide]: the MIC (in general, the smallest concentration in the dilution series that meets the test's criterion for growth inhibition) in the assay on replicating Mtb H37Rv lay within 49 to 53 µM (≈ 15.1 to 16.3 µg/mL). In addition, in assay [1], the “MIC Mtb H37Rv 7H9-Tw-OADC” value was determined as 10 µM (≈ 3.07 µg/mL).
